Data published in patent US10526278B2, “Inhibitors of quorum sensing receptor LasR” (priority 2017, dated 2020).
pIC50: −log10 of the molar value.

What was measured:
LasR [1] = target: T1, LasR (Pseudomonas aeruginosa, UniProt P25084); assay: LasR activation (agonism) assay, methods of Moore et al. 2015; assay type: cell-based; settings: at high concentrations; FIGS. 8B, 9B, 10B
From the text: (§1) Methods for assessing LasR activation and inhibition are known in the art. More specifically methods as described in Moore et al. 2015 are used herein to assess activation and inhibition.
FIGS. 8A and 8B compare % LasR inhibition (8A) with % LasR activation (8B) for control compound V-06-018.
FIGS. 9A and 9B compare % LasR inhibition (9A) with % LasR activation (9B) for compound 33.
FIGS. 10A and 10B compare % LasR inhibition (10A) with % LasR activation (10B) for compound 32 (thiophene analog of compound 33).

P. aeruginosa PAO1 [2] = assay: Elastase B production in P. aeruginosa PAO1 culture supernatants (elastin-Congo red); assay type: cell-based, Pseudomonas aeruginosa; settings: compound alone 100 μM; % elastase relative to DMSO; FIG. 12A
Experimental: FIG. 12A is a graph comparing inhibition of elastase (as % relative to DMSO) for certain compounds of the invention. The amount of indicated compound added was 100 μM. M64 alone or in combination was added in the amount of 20 μM. The assay is conducted as described in Welsh et al. (2016) for compounds shown as well as certain compounds in combination with compound M-64 (Starkey, M. et al. (2014)):
The amount of elastase B in P. aeruginosa culture supernatants was measured following a reported protocol (Welsh et al., 2017 and Geske et al., 2007b) with modifications. A 10 mL overnight culture of P. aeruginosa PAO1 was grown for 16 hr. An inoculating culture was prepared by diluting the overnight culture 1:100 into freshly prepared assay medium, and 2 mL aliquots of this subculture were added to each test tube (0.5% DMSO, final). The cultures were grown for 17 hr, and the final cell density measured by reading OD600. […]
To quantify elastase B activity, the undigested elastin was pelleted by centrifugation of the assay plate at […] for 10 min, after which […] of the supernatant was transferred to a new, clear 96-well plate, and the absorbance at 490 nm measured. Media background absorbance (measured from a “no bacteria” control) was subtracted, the resulting values growth normalized by dividing by the final OD600, and the data plotted relative to a DMSO-treated positive control.

LasR [3] = target: T1, LasR; assay type: cell-based; settings: measured vs 25 nM OdDHL
From the text: as §1
IC50 is the concentration of an inhibitor where the response or binding is reduced by half (half maximal inhibitory concentration).

P. aeruginosa PAO1 [4] = settings: earlier reports; cited from earlier work

T1 sequence (P25084 whole entry): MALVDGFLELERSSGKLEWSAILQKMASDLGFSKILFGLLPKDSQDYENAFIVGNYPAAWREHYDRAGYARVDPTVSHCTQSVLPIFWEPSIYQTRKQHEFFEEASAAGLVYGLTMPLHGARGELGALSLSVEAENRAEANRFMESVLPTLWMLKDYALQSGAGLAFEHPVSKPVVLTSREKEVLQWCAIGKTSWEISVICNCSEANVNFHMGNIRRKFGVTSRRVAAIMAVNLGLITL

Compound: CCCCCCCCCC(=O)CC(=O)Nc1ccccc1 [Compound V-06-018]
- % LasR activation (LasR [1]): does not exhibit LasR activation
- inhibition of production of virulence factor elastase (P. aeruginosa PAO1 [2]): little or no inhibition
- Maximum Inhibition (95% CL) (LasR [3]): 87 (91-85) %
- pIC50 (LasR [3]; read-out: IC50 (95% CL)): 5.70
- inhibition of elastase production (previously shown) (P. aeruginosa PAO1 [4]): previously been shown to inhibit elastase production
